In patent US9090627B2 (priority 2012, dated 2015):

Assays:
mice = details: mouse, in vivo; cited from earlier work
[1] = rat
[2] = human

| Compound | LD50 in mice (mice) | Skin penetration behavior (layer reached) [1] | Change in penetration with application time [2] |
| --- | --- | --- | --- |
| Batrachotoxin | 2 µg/kg | – | – |
| CCN1C[C@]2(COC)[C@H](O)C[C@H](OC)[C@@]34[C@@H]5C[C@@]6(O)[C@H](OC(=O)c7ccccc7)[C@@H]5[C@@](OC(C)=O)([C@@H]([C@H](OC)[C@H]23)[C@@H]14)[C@@H](O)[C@@H]6OC [aconitine] | – | Complete skin penetration | increased penetration occurring at 4 and 10 hours of application in comparison to 1 hour |
